Source: ChEMBL document CHEMBL5325462, “Regioselective synthesis and in vitro cytotoxicity evaluation of 3-thiooxindole derivatives: Tubulin polymerization inhibition and apoptosis inducing studies” (Bioorg Med Chem, 2023)
Active and inactive are the calls of the source. The calls are words filed in the database; no cut-off is given here.

Assays:
[1] = tested on: HCT-116; assay: Induction of apoptosis in human HCT-116 cells assessed as necrotic cells at 6.64 uM incubated for 24 hrs by Annexin V-FITC/PI staining based flow cytometry analysis (Rvb= 0.0%); format: functional
[2] = tested on: HCT-116; assay: Cell cycle arrest in human HCT-116 cells assessed as accumulation of cells in G2/M phase at 13.28 uM measured after 48 hrs by PI staining based flow cytometry method (reference value: 6.7%); format: functional
[3] = tested on: HCT-116; assay: Cell cycle arrest in human HCT-116 cells assessed as accumulation of cells in G0/G1 phase at 6.64 uM measured after 48 hrs by PI staining based flow cytometry method (reference value: 79%); format: functional
[4] = tested on: A549; assay: Cytotoxicity against human A549 cells assessed as inhibition of cell growth measured after 72 hrs by MTT assay; format: functional, cell-based; details: A549, 72 h
[5] = tested on: HCT-116; assay: Induction of apoptosis in human HCT-116 cells assessed as necrotic cells at 3.32 uM incubated for 24 hrs by Annexin V-FITC/PI staining based flow cytometry analysis (Rvb= 0.0%); format: functional
[6] = tested on: HCT-116; assay: Cell cycle arrest in human HCT-116 cells assessed as accumulation of cells in G2/M phase at 3.32 uM measured after 48 hrs by PI staining based flow cytometry method (reference value: 6.7%); format: functional
[7] = tested on: HCT-116; assay: Induction of apoptosis in human HCT-116 cells assessed as late apoptotic cells at 13.28 uM incubated for 24 hrs by Annexin V-FITC/PI staining based flow cytometry analysis (Rvb= 0.1%); format: functional
[8] = tested on: HCT-116; assay: Induction of ROS production in human HCT-116 cells at 3.32 uM incubated for 72 hrs by DCFDA staining based fluorescence microscopic analysis; format: functional, cell-based
[9] = tested on: MCF7; assay: Cytotoxicity against human MCF7 cells assessed as inhibition of cell growth measured after 72 hrs by MTT assay; format: functional, cell-based; details: MCF7, 72 h
[10] = tested on: HCT-116; assay: Induction of apoptosis in human HCT-116 cells assessed as necrotic cells at 13.28 uM incubated for 24 hrs by Annexin V-FITC/PI staining based flow cytometry analysis (Rvb= 0.0%); format: functional
[11] = tested on: HCT-116; assay: Induction of apoptosis in human HCT-116 cells assessed as late apoptotic cells at 6.64 uM incubated for 24 hrs by Annexin V-FITC/PI staining based flow cytometry analysis (Rvb= 0.1%); format: functional
[12] = Cytotoxicity against rat NRK cells assessed as inhibition of cell growth measured after 72 hrs by MTT assay; format: toxicity, cell-based
[13] = tested on: HCT-116; assay: Inhibition of colony formation in human HCT-116 cells measured after 14 days; format: functional, cell-based; details: dose 3.32-13.28 µM, time 14.0 day
[14] = tested on: HCT-116; assay: Inhibition of colony formation in human HCT-116 cells at 3.32 to 13.28 uM measured after 14 days; format: functional, cell-based; details: dose 3.32-13.28 µM, time 14.0 day
[15] = tested on: HCT-116; assay: Induction of apoptosis in human HCT-116 cells assessed as viable cells at 3.32 uM incubated for 24 hrs by Annexin V-FITC/PI staining based flow cytometry analysis (Rvb= 99.7%); format: functional; details: read-out: Activity

`CC(C)(C)S(=O)(=O)NCC1(Sc2nc3ccccc3[nH]2)C(=O)N(Cc2ccc(Br)cc2)c2ccccc21` (stereo not given) gave an Activity [1] of 10.4%, an Activity [2] of 18.4% and an Activity [3] of 49.2%. The IC50 [4] was 19.2 µM, the Activity [5] was 0.3% and the Activity [6] was 11.8%. The Activity [7] was 84.1%, the Activity [8] was “Active” and the IC50 [9] was 12.8 µM. For the same compound, the Activity [10] was 2.9%, the Activity [11] was 58.4% and the IC50 at 72 h [12] was 38.4 µM. For the same compound, the inhibition [13] was “Dose-Dependent Effect”, the inhibition [14] was “Active” and the viability at 3.32 µM [15] was 4.5%.
